Assay results: US20230416316A1, “ADP-RIBOSE BINDING PEPTIDES WITH ANTI-CANCER ACTIVITY AND USE THEREOF” (PearlsInMires Co., Ltd., priority 2021, published 2023)

Experiments:
Format in all cases: cell-based
U-87MG cells [1] = experiment: Cell viability (MTT, photomicrographs) in U-87MG cells; conditions: 16 μM peptide, 24 hours
Protocol: (§1) After culturing 3×10^3 U-87MG cells in a 96-well plate for 24 hours under conditions of 37° C. and 5% CO2, the cells were either untreated or treated with the peptides of Examples 1 to 28 at a concentration of 16 μM, respectively. Then, the cells were cultured for 24 hours under conditions of 37° C. and 5% CO2, and 10 μl of 3-(4,5-dimethylthiazol-2-yl)-2,5-diphenyltetrazolium bromide reagent was added to each well, followed by reaction for 1 hour. After the reaction was completed, the reagent was removed, 200 μl of dimethyl sulfoxide was added to each well, and the absorbance was measured to confirm cell viability.

Aspc-1 cells = experiment: Cell viability (MTT, photomicrographs) in Aspc-1 cells; conditions: 16 μM peptide, 24 hours
Protocol: as §1, with “Aspc-1” for “U-87MG”

Hep G2 cells = experiment: Cell viability (MTT, photomicrographs) in Hep G2 cells; conditions: 16 μM peptide, 24 hours
Protocol: 2-4. Change in viability in Hep G2 cells according to treatment with ADP-ribose binding peptide After culturing 3×10^3 Hep G2 cells in a 96-well plate for 24 hours under conditions of 37° C. and 5% CO2, the cells were either untreated or treated with the peptides of Examples 1 to 28 at a concentration of 16 μM, respectively. Then, the cells were cultured for 24 hours under conditions of 37° C. and 5% CO2, and 10 μl of 3-(4,5-dimethylthiazol-2-yl)-2,5-diphenyltetrazolium bromide reagent was added to each well, followed by reaction for 1 hour. After the reaction was completed, the reagent was removed, 200 μl of dimethyl sulfoxide was added to each well, and the absorbance was measured to confirm cell viability.

HCT116 cells = experiment: Cell viability (MTT, photomicrographs) in HCT116 cells; conditions: 16 μM peptide, 24 hours
Protocol: as §1, with “HCT116” for “U-87MG”

H1975 cells = experiment: Cell viability (MTT, photomicrographs) in H1975 cells; conditions: 16 μM peptide, 24 hours
Protocol: as §1, with “H1975” for “U-87MG”

U-87MG cells [2] = experiment: ADP-ribose level by ELISA in U-87MG cells; conditions: 0.2-32 μM peptide, 24 hours
Protocol: The peptides of Examples 1 to 28 of the present disclosure are designed to inhibit the action of poly ADP-ribose degradation enzyme. In Experimental Example 1, it was confirmed through cell experiments whether poly ADP-ribose was inhibited from being degraded by each of the peptides and accumulated in cancer cells.
5×10^5 U-87MG cells were divided into a group not treated with the peptide of Example and a group treated with 0.2, 1, 2, 4, 8, 16, and 32 μM of the peptide of Example 1 (SEQ ID NO: 1) or Example 8 (SEQ ID NO: 8), and cultured for 24 hours under conditions of 37° C. and 5% CO2 in Eagle's minimum essential medium (EMEM) supplemented with 10% FBS, 100 units/ml penicillin, and 100 μg/ml streptomycin. The medium of the cultured cells was removed, and the samples were treated with RIPA buffer and 1% SDS. The prepared supernatant was used for ELISA analysis to detect and analyze ADP-ribose.

Caki-1 cells = experiment: Cell viability (MTT, photomicrographs) in Caki-1 cells; conditions: 16 μM peptide, 24 hours
Protocol: as §1, with “Caki-1” for “U-87MG”

MDA-MB-231 cells = experiment: Cell viability (MTT, photomicrographs) in MDA-MB-231 cells; conditions: 16 μM peptide, 24 hours
Protocol: as §1, with “culturing 3×10^3 MDA-MB-231 cells in” for “culturing 3×10^3 U-87MG cells in”, “and 5% C02, the cells” for “and 5% CO2, the cells”

GRKKRRQRRRPQVPYIIDLQSMHQFRQDIGTMRPVRR (GRKKRRQRRRPQVPYIIDLQSMHQFRQDTGTMRPVRR; ADP-ribose binding peptide with CPP) [Example 15]
cancer cell growth and survival (U-87MG cells [1]): completely killed

GRKKRRQRRRPQWIWYWKNESGTWIQYGEEKDKRKN (ADP-ribose binding peptide with CPP) [Example 24]
cancer cell growth and survival (Aspc-1 cells): completely killed

GRKKRRQRRRPQYNYTVNYTTHTQTNKTSSFCRSVRR (ADP-ribose binding peptide with CPP) [Example 22]
cancer cell growth and survival (U-87MG cells [1]): completely killed

GRKKRRQRRRPQRVYTIDENSMQQINEDTGTARAIQR (GRKKRRQRRRPQRVYTIDFNSMQQINEDTGTARAIQR; ADP-ribose binding peptide with CPP) [Example 18]
cancer cell growth and survival (Hep G2 cells): completely killed

GRKKRRQRRRPQAPYIIDLPSWTQFRQDIGTMRAVRR (GRKKRRQRRRPQAPYIIDLPSWTQFRQDTGTMRAVRR; ADP-ribose binding peptide with CPP) [Example 17]
cancer cell growth and survival (Aspc-1 cells): completely killed

GRKKRRQRRRPQGRYDVHLGERMRYAVYWDELASEVRR (ADP-ribose binding peptide with CPP) [Example 27]
cancer cell growth and survival (HCT116 cells): completely killed

GRKKRRQRRRPQFLYVADLENMVQYRRNEHGRRRKIKR (ADP-ribose binding peptide with CPP) [Example 25]
cancer cell growth and survival (Hep G2 cells): completely killed

GRKKRRQRRRPQAPYIIDLQSMNQFRQDTGTLRPVRR (ADP-ribose binding peptide with CPP) [Example 16]
cancer cell growth and survival (H1975 cells): completely killed

VPYIIDLQSMHQFRQDIGTMRPVRR (VPYIIDLQSMHQFRQDTGTMRPVRR; ADP-ribose binding peptide) [Example 1]
cancer cell growth and survival (U-87MG cells [1]): inhibited from growing and killed | amount of increase in ADP-ribose (fold change) compared to the control group (U-87MG cells [2]): significant increase in the amount of ADP-ribose in a concentration-dependent manner

GRKKRRQRRRPQRRYTVQFTTMVQVNEETGNRRPVM (ADP-ribose binding peptide with CPP) [Example 23]
cancer cell growth and survival (H1975 cells): completely killed

GRKKRRQRRRPQTAYEASVCDYLEQQVARGN (ADP-ribose binding peptide with CPP) [Example 28]
cancer cell growth and survival (Caki-1 cells): completely killed

GRKKRRQRRRPQFSYKIDFAEMKQMNLTTGKQRLIKR (ADP-ribose binding peptide with CPP) [Example 21]
cancer cell growth and survival (Caki-1 cells): completely killed

GRKKRRQRRRPQRHYTVNLNTYTATDTKGHSLSVQR (ADP-ribose binding peptide with CPP) [Example 26]
cancer cell growth and survival (MDA-MB-231 cells): completely killed

GRKKRRQRRRPQFCYLIYENSMSQMNRQTRRRRRLRR (GRKKRRQRRRPQFCYLIYFNSMSQMNRQTRRRRRLRR; ADP-ribose binding peptide with CPP) [Example 19]
cancer cell growth and survival (MDA-MB-231 cells): completely killed

GRKKRRQRRRPQFSYVIDENTMGQINRQTQRQRRVRR (GRKKRRQRRRPQFSYVIDFNTMGQINRQTQRQRRVRR; ADP-ribose binding peptide with CPP) [Example 20]
cancer cell growth and survival (HCT116 cells): completely killed

YNYTVNYTTHTQTNKTSSFCRSVRR (ADP-ribose binding peptide) [Example 8]
cancer cell growth and survival (U-87MG cells [1]): inhibited from growing and killed | amount of increase in ADP-ribose (fold change) compared to the control group (U-87MG cells [2]): significant increase in the amount of ADP-ribose in a concentration-dependent manner
